According to patent US7833985B2, “Angiotensin-converting enzyme inhibitory peptides” (Suntory Holdings Limited, priority 2003, dated 2010):

Target: T1, ACE from rabbit lung (Oryctolagus cuniculus, UniProt P12822)
T1 construct: ACE from rabbit lung (Sigma); purchased Sigma; host or cells: rabbit lung
T1 sequence (P12822 34-1310): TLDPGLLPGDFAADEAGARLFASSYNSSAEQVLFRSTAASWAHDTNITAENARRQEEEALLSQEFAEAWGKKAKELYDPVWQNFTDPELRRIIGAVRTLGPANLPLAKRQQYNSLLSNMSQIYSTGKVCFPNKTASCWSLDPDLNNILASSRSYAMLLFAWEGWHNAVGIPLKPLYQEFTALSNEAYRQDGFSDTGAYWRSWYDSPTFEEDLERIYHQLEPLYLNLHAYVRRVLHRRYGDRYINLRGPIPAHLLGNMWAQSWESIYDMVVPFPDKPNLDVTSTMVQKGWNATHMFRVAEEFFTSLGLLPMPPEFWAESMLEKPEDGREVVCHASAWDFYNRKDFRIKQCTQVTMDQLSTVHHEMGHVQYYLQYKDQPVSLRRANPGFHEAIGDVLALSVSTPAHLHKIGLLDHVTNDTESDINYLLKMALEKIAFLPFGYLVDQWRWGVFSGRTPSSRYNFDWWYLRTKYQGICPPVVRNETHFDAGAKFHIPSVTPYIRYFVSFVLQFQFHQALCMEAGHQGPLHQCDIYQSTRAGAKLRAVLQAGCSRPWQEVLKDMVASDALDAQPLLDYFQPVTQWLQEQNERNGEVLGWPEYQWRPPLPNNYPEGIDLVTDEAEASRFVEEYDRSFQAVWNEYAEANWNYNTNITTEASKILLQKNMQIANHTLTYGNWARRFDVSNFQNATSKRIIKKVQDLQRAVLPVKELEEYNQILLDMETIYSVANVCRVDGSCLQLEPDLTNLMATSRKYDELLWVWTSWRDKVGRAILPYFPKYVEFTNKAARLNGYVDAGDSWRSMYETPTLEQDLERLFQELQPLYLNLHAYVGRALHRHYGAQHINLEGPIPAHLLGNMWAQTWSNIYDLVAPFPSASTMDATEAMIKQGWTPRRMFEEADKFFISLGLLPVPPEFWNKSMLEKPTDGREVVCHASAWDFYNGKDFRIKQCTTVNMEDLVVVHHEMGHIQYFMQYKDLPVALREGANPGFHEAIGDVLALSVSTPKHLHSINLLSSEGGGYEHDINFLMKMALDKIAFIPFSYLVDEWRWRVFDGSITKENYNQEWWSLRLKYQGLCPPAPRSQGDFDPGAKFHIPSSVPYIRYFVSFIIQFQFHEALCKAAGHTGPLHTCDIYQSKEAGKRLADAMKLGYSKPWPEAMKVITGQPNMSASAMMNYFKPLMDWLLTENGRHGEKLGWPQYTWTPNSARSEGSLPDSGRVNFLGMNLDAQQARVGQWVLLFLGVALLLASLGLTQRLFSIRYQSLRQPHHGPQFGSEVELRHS
Test: ACE inhibitory activity (IC50), fluorometric Bz-Gly-His-Leu hydrolysis
Type: biochemical
Details: peptide purified from thermolysin digestion product of sesame protein; 5 μl portion of each fraction
Experimental: In the present invention, the ACE inhibitory activity (IC50) was measured in accordance with the following method.
5 μl of a sample containing the peptide of the invention was pipetted into a 96-well microplate. After adding 25 μl of the buffer and 10 μl of the enzyme, the mixture was thoroughly stirred and incubated at 37° C. for 5 minutes. After adding 10 μl of the substrate, the mixture was reacted at 37° C. for 30 minutes. Then the reaction was ceased by adding 40 μl of 0.1 N NaOH. […] Then the amount of His-Leu formed by the hydrolysis by ACE was determined by exciting (at 355 nm) the fluorescent substance formed by the reaction between the amino group in the histidine residue and o-phthalaldehyde and measuring the fluorescence wavelength at 460 nm. Then the percentage inhibition by the peptide of the invention was determined in accordance with the following equation and the ACE inhibitory activity (IC50) was calculated. Percentage inhibition={1−(A−a)/(B−b)}×100 • A: Measurement of fluorescence when the sample was added. • a: Measurement of fluorescence when the sample was added and the buffer was added as a substitute for the enzyme. • B: Measurement of fluorescence when distilled water was added as a substitute for the sample. • b: Measurement of fluorescence when distilled water was added as a substitute for the sample and the buffer was added as a substitute for the enzyme.

ACE inhibitory activity of the C30 HPLC fractions identified as the peptide: strong ACE inhibitory activities
Substance: Ile-Val-Tyr
